Measurements as given in the kinase profiling compilation of Christmann-Franck et al. (2016).

What was measured:
Test in all cases: KINOMEscan competition binding
Settings in all cases: compound 10.0 µM
MAPK6 (human) = MAPK6 (human) (UniProt Q16659)
CSNK1G2 (human) = CSNK1G2 (human) (UniProt P78368)
PKN1 (human) = PKN1 (human) (UniProt Q16512)
RIOK1 (human) = RIOK1 (human) (UniProt Q9BRS2)
[1] = test system: FLT3 (human), P36888 [D835H]
MET (human) = MET (human) (UniProt P08581)
PRPF4B (human) = PRPF4B (human) (UniProt Q13523)
CHEK2 (human) = CHEK2 (human) (UniProt O96017)
DCLK2 (human) = DCLK2 (human) (UniProt Q8N568)
GRK7 (human) = GRK7 (human) (UniProt Q8WTQ7)
ERBB3 (human) = ERBB3 (human) (UniProt P21860)
MAST1 (human) = MAST1 (human) (UniProt Q9Y2H9)
[2] = test system: MET (human), P08581 [Y1235D]
MARK2 (human) = MARK2 (human) (UniProt Q7KZI7)
IRAK3 (human) = IRAK3 (human) (UniProt Q9Y616)
INSR (human) = INSR (human) (UniProt P06213)
LYN (human) = LYN (human) (UniProt P07948)
PIM1 (human) = PIM1 (human) (UniProt P11309)
LTK (human) = LTK (human) (UniProt P29376)
BMPR2 (human) = BMPR2 (human) (UniProt Q13873)
Sequence of BMPR2 (human) (Q13873 whole entry, looked up): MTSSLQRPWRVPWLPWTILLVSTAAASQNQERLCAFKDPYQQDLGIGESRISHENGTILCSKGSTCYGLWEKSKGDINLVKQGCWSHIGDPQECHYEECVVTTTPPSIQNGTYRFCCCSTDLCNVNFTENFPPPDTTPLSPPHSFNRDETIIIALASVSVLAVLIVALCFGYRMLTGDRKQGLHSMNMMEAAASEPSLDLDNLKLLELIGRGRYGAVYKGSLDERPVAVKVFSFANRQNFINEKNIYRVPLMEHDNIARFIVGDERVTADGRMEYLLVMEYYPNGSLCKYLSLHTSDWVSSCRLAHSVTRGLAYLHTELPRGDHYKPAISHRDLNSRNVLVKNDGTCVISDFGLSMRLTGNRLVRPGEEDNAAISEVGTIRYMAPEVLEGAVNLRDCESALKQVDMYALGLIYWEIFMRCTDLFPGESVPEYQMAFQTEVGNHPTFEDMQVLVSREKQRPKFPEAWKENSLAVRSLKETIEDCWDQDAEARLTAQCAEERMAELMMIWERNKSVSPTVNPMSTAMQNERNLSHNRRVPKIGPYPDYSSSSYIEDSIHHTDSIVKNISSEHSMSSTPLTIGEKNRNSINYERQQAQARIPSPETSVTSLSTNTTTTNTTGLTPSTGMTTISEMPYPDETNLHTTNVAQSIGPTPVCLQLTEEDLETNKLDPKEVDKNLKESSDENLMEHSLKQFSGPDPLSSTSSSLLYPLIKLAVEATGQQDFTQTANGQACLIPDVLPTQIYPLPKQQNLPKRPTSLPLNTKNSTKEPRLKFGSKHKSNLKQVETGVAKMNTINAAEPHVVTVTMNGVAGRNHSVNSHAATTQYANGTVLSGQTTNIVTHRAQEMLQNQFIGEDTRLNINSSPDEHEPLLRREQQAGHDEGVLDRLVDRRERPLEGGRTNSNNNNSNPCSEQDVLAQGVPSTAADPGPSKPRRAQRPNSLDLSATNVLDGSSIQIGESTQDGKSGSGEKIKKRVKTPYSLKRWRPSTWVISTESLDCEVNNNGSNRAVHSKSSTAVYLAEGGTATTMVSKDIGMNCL

PIP5K1A (human) = PIP5K1A (human) (UniProt Q99755)
PIK3CG (human) = PIK3CG (human) (UniProt P48736)
Sequence of PIK3CG (human) (P48736 whole entry, looked up): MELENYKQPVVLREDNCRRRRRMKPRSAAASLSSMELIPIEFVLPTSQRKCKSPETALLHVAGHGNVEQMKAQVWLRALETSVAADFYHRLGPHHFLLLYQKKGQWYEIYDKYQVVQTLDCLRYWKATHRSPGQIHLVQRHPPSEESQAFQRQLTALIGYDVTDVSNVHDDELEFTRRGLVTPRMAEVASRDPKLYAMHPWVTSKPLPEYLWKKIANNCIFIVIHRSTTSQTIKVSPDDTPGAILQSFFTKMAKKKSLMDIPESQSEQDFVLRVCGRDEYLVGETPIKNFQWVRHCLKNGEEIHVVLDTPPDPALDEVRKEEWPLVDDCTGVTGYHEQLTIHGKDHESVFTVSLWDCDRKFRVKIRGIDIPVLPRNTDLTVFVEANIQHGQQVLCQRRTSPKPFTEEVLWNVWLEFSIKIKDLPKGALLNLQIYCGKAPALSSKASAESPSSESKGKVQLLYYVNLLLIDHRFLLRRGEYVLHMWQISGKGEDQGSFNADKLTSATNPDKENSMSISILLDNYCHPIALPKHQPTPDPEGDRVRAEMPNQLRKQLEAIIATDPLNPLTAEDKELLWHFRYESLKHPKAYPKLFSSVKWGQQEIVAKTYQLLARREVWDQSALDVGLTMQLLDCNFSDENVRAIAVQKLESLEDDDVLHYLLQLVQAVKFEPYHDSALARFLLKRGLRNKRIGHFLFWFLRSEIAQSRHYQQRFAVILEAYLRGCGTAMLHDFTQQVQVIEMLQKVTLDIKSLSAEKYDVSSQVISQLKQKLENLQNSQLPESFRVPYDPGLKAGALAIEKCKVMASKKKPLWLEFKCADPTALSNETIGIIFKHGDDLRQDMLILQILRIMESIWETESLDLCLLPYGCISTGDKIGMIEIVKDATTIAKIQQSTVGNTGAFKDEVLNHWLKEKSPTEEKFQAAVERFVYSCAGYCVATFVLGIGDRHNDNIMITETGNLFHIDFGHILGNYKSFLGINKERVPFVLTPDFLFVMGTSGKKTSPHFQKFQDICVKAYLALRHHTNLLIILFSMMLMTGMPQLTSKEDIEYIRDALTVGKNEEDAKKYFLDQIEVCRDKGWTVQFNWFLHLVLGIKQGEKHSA

MAP3K11 (human) = MAP3K11 (human) (UniProt Q16584)
Sequence of MAP3K11 (human) (Q16584 whole entry, looked up): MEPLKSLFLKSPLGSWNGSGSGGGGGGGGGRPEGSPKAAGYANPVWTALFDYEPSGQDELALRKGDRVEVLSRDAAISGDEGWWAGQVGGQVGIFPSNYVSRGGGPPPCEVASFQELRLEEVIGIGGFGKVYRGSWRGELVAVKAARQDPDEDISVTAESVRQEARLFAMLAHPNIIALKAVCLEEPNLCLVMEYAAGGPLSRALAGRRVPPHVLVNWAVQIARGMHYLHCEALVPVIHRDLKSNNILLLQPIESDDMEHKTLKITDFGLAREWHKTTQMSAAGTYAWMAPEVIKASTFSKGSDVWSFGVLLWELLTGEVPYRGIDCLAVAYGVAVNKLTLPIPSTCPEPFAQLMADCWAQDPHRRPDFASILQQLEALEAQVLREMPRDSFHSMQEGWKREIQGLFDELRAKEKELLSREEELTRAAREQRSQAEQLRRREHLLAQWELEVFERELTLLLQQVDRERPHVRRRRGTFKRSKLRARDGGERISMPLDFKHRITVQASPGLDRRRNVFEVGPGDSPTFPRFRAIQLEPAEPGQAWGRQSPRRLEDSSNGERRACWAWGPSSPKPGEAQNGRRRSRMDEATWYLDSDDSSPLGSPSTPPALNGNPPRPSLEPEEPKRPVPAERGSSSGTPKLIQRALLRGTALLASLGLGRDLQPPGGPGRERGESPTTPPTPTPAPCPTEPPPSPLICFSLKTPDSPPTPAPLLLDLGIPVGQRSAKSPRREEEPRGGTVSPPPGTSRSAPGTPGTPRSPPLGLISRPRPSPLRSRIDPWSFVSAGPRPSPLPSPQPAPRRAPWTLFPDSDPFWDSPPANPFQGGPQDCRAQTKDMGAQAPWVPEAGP

EPHB3 (human) = EPHB3 (human) (UniProt P54753)
RAF1 (human) = RAF1 (human) (UniProt P04049)
CSNK1E (human) = CSNK1E (human) (UniProt P49674)
Sequence of CSNK1E (human) (P49674 whole entry, looked up): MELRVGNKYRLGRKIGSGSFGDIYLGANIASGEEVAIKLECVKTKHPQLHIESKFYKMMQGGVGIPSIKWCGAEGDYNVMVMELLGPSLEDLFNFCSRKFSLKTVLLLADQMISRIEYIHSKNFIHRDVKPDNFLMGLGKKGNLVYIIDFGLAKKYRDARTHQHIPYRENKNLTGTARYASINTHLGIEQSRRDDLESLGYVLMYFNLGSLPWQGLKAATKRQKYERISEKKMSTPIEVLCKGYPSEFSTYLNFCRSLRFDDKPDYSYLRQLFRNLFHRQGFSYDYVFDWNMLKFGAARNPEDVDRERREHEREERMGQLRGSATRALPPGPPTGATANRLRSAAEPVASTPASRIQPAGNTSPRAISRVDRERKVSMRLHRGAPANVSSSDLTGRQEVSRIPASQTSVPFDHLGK

NUAK2 (human) = NUAK2 (human) (UniProt Q9H093)
MAP4K2 (human) = MAP4K2 (human) (UniProt Q12851)
CSF1R (human) = CSF1R (human) (UniProt P07333)
EPHB6 (human) = EPHB6 (human) (UniProt O15197)
HIPK2 (human) = HIPK2 (human) (UniProt Q9H2X6)
Sequence of HIPK2 (human) (Q9H2X6 whole entry, looked up): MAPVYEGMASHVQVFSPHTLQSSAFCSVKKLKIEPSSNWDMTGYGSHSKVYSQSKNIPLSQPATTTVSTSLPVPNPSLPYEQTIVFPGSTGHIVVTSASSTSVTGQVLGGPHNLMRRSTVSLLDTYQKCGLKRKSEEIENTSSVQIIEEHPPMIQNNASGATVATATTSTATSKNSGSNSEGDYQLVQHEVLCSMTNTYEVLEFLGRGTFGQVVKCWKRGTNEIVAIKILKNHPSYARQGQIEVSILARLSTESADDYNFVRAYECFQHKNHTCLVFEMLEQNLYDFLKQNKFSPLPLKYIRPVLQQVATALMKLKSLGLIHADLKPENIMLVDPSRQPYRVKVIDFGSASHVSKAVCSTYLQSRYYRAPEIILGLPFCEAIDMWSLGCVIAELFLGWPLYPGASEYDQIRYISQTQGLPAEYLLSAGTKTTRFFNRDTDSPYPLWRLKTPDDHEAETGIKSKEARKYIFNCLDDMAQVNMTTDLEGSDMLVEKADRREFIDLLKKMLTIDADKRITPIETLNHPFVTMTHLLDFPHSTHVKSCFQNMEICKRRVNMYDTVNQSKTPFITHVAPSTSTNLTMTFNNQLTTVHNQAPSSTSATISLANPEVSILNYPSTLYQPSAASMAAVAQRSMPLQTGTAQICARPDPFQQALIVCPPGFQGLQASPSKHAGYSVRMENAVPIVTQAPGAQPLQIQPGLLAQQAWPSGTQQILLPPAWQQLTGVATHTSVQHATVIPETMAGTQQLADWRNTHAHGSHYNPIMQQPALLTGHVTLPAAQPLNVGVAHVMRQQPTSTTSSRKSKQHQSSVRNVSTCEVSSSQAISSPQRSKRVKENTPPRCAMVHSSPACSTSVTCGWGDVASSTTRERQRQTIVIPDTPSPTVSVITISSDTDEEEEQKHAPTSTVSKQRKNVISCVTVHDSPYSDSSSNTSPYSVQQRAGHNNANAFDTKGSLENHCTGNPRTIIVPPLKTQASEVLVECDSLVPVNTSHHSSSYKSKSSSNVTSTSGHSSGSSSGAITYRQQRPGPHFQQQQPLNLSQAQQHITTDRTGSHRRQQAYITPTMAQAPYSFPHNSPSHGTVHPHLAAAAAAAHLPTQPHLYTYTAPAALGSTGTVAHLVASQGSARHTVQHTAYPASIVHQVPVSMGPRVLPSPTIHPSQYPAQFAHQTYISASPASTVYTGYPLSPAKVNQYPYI

MAPK3 (human) = MAPK3 (human) (UniProt P27361)
PRKCI (human) = PRKCI (human) (UniProt P41743)
STK32A (human) = STK32A (human) (UniProt Q8WU08)
CDK13 (human) = CDK13 (human) (UniProt Q14004)
CRK2 (P.falciparum) = CRK2 (P.falciparum) (UniProt P61075)
NEK4 (human) = NEK4 (human) (UniProt P51957)
TAOK2 (human) = TAOK2 (human) (UniProt Q9UL54)
SNRK (human) = SNRK (human) (UniProt Q9NRH2)

Sequence of CSNK1G2 (human) (P78368 whole entry, looked up): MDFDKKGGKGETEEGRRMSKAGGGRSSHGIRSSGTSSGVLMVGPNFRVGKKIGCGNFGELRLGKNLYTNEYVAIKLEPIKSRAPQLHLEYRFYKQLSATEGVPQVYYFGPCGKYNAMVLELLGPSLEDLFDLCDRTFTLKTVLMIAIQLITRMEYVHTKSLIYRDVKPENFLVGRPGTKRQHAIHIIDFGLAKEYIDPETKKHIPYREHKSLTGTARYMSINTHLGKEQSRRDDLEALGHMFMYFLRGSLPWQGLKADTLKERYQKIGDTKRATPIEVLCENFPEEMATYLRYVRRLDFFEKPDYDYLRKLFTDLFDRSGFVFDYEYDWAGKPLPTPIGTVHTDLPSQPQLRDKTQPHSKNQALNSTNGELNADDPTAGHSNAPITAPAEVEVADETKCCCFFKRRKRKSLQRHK

Q: Which kinase still bound, per cent of control (MAPK6 (human)) does the source give for `COc1cc(N2CCN(C)CC2)ccc1Nc1ncc2c(n1)N(C)c1ccccc1C(=O)N2C` here?
A: 100%

Q: What about the kinase still bound, per cent of control (CSNK1G2 (human)) of the same compound?
A: 100%

Q: And the kinase still bound, per cent of control (PKN1 (human))?
A: 100%

Q: And the kinase still bound, per cent of control (RIOK1 (human))?
A: 100%

Q: What about the kinase still bound, per cent of control [1] of the same compound?
A: 100%

Q: What about the kinase still bound, per cent of control (MET (human)) of the same compound?
A: 100%

Q: And the kinase still bound, per cent of control (PRPF4B (human))?
A: 100%

Q: What about the kinase still bound, per cent of control (CHEK2 (human)) of the same compound?
A: 30%

Q: And the kinase still bound, per cent of control (DCLK2 (human))?
A: 0.45%

Q: And the kinase still bound, per cent of control (GRK7 (human))?
A: 100%

Q: What about the kinase still bound, per cent of control (ERBB3 (human)) of the same compound?
A: 100%

Q: What about the kinase still bound, per cent of control (MAST1 (human)) of the same compound?
A: 100%

Q: What about the kinase still bound, per cent of control [2] of the same compound?
A: 100%

Q: What about the kinase still bound, per cent of control (MARK2 (human)) of the same compound?
A: 100%

Q: And the kinase still bound, per cent of control (IRAK3 (human))?
A: 100%

Q: What about the kinase still bound, per cent of control (INSR (human)) of the same compound?
A: 100%

Q: What about the kinase still bound, per cent of control (LYN (human)) of the same compound?
A: 100%

Q: What about the kinase still bound, per cent of control (PIM1 (human)) of the same compound?
A: 100%

Q: And the kinase still bound, per cent of control (LTK (human))?
A: 100%

Q: What about the kinase still bound, per cent of control (BMPR2 (human)) of the same compound?
A: 100%

Q: And the kinase still bound, per cent of control (PIP5K1A (human))?
A: 100%

Q: And the kinase still bound, per cent of control (PIK3CG (human))?
A: 31%

Q: And the kinase still bound, per cent of control (MAP3K11 (human))?
A: 100%

Q: And the kinase still bound, per cent of control (EPHB3 (human))?
A: 100%

Q: And the kinase still bound, per cent of control (RAF1 (human))?
A: 100%

Q: And the kinase still bound, per cent of control (CSNK1E (human))?
A: 100%

Q: And the kinase still bound, per cent of control (NUAK2 (human))?
A: 14%

Q: And the kinase still bound, per cent of control (MAP4K2 (human))?
A: 100%

Q: What about the kinase still bound, per cent of control (CSF1R (human)) of the same compound?
A: 16%

Q: And the kinase still bound, per cent of control (EPHB6 (human))?
A: 34%

Q: What about the kinase still bound, per cent of control (HIPK2 (human)) of the same compound?
A: 100%

Q: And the kinase still bound, per cent of control (MAPK3 (human))?
A: 100%

Q: Which kinase still bound, per cent of control (MAPK6 (human)) does the source give for `N#CCNC(=O)c1ccc(-c2ccnc(Nc3ccc(N4CCOCC4)cc3)n2)cc1` here?
A: 71%

Q: And the kinase still bound, per cent of control (CSNK1G2 (human))?
A: 100%

Q: And the kinase still bound, per cent of control (PKN1 (human))?
A: 66%

Q: And the kinase still bound, per cent of control (RIOK1 (human))?
A: 1%

Q: What about the kinase still bound, per cent of control (MET (human)) of the same compound?
A: 100%

Q: What about the kinase still bound, per cent of control (PRPF4B (human)) of the same compound?
A: 8%

Q: What about the kinase still bound, per cent of control (PRKCI (human)) of the same compound?
A: 75%

Q: And the kinase still bound, per cent of control (CHEK2 (human))?
A: 100%

Q: And the kinase still bound, per cent of control (DCLK2 (human))?
A: 55%

Q: What about the kinase still bound, per cent of control (GRK7 (human)) of the same compound?
A: 100%

Q: And the kinase still bound, per cent of control (ERBB3 (human))?
A: 100%

Q: And the kinase still bound, per cent of control (STK32A (human))?
A: 100%

Q: And the kinase still bound, per cent of control (CDK13 (human))?
A: 91%

Q: What about the kinase still bound, per cent of control (MAST1 (human)) of the same compound?
A: 42%

Q: And the kinase still bound, per cent of control [2]?
A: 100%

Q: What about the kinase still bound, per cent of control (MARK2 (human)) of the same compound?
A: 43%

Q: And the kinase still bound, per cent of control (CRK2 (P.falciparum))?
A: 100%

Q: And the kinase still bound, per cent of control (IRAK3 (human))?
A: 22%

Q: What about the kinase still bound, per cent of control (INSR (human)) of the same compound?
A: 57%

Q: And the kinase still bound, per cent of control (LYN (human))?
A: 94%

Q: What about the kinase still bound, per cent of control (PIM1 (human)) of the same compound?
A: 100%

Q: And the kinase still bound, per cent of control (LTK (human))?
A: 100%

Q: And the kinase still bound, per cent of control (NEK4 (human))?
A: 100%

Q: And the kinase still bound, per cent of control (BMPR2 (human))?
A: 100%

Q: What about the kinase still bound, per cent of control (PIP5K1A (human)) of the same compound?
A: 39%

Q: And the kinase still bound, per cent of control (PIK3CG (human))?
A: 2.4%

Q: What about the kinase still bound, per cent of control (MAP3K11 (human)) of the same compound?
A: 95%

Q: What about the kinase still bound, per cent of control (TAOK2 (human)) of the same compound?
A: 100%

Q: And the kinase still bound, per cent of control (EPHB3 (human))?
A: 100%

Q: What about the kinase still bound, per cent of control (RAF1 (human)) of the same compound?
A: 100%

Q: What about the kinase still bound, per cent of control (CSNK1E (human)) of the same compound?
A: 100%

Q: What about the kinase still bound, per cent of control (NUAK2 (human)) of the same compound?
A: 8.9%

Q: And the kinase still bound, per cent of control (SNRK (human))?
A: 89%

Q: And the kinase still bound, per cent of control (MAP4K2 (human))?
A: 40%

Q: What about the kinase still bound, per cent of control (EPHB6 (human)) of the same compound?
A: 58%

Q: What about the kinase still bound, per cent of control (HIPK2 (human)) of the same compound?
A: 15%

Q: What about the kinase still bound, per cent of control (MAPK3 (human)) of the same compound?
A: 100%

Q: With `CCN(CC)CCCCNc1ncc2c(n1)N(C)C(=O)N(c1c(Cl)c(OC)cc(OC)c1Cl)C2` as the compound, how does the kinase still bound, per cent of control (MAPK6 (human)) read?
A: 100%

Q: And the kinase still bound, per cent of control (CSNK1G2 (human))?
A: 100%

Q: What about the kinase still bound, per cent of control (PKN1 (human)) of the same compound?
A: 100%

Q: What about the kinase still bound, per cent of control (RIOK1 (human)) of the same compound?
A: 100%

Q: What about the kinase still bound, per cent of control [1] of the same compound?
A: 100%

Q: What about the kinase still bound, per cent of control (MET (human)) of the same compound?
A: 100%

Q: What about the kinase still bound, per cent of control (PRPF4B (human)) of the same compound?
A: 100%

Q: What about the kinase still bound, per cent of control (CHEK2 (human)) of the same compound?
A: 100%

Q: And the kinase still bound, per cent of control (DCLK2 (human))?
A: 100%

Q: What about the kinase still bound, per cent of control (GRK7 (human)) of the same compound?
A: 100%

Q: And the kinase still bound, per cent of control (ERBB3 (human))?
A: 100%

Q: What about the kinase still bound, per cent of control (MAST1 (human)) of the same compound?
A: 100%

Q: And the kinase still bound, per cent of control [2]?
A: 100%

Q: And the kinase still bound, per cent of control (MARK2 (human))?
A: 100%

Q: And the kinase still bound, per cent of control (IRAK3 (human))?
A: 100%

Q: What about the kinase still bound, per cent of control (INSR (human)) of the same compound?
A: 100%

Q: What about the kinase still bound, per cent of control (LYN (human)) of the same compound?
A: 34%

Q: What about the kinase still bound, per cent of control (PIM1 (human)) of the same compound?
A: 100%

Q: What about the kinase still bound, per cent of control (LTK (human)) of the same compound?
A: 100%

Q: And the kinase still bound, per cent of control (BMPR2 (human))?
A: 100%

Q: What about the kinase still bound, per cent of control (PIP5K1A (human)) of the same compound?
A: 100%

Q: What about the kinase still bound, per cent of control (PIK3CG (human)) of the same compound?
A: 100%

Q: What about the kinase still bound, per cent of control (MAP3K11 (human)) of the same compound?
A: 100%

Q: What about the kinase still bound, per cent of control (EPHB3 (human)) of the same compound?
A: 100%

Q: And the kinase still bound, per cent of control (RAF1 (human))?
A: 100%

Q: What about the kinase still bound, per cent of control (CSNK1E (human)) of the same compound?
A: 100%

Q: And the kinase still bound, per cent of control (NUAK2 (human))?
A: 100%

Q: And the kinase still bound, per cent of control (MAP4K2 (human))?
A: 100%

Q: And the kinase still bound, per cent of control (CSF1R (human))?
A: 0.15%

Q: What about the kinase still bound, per cent of control (EPHB6 (human)) of the same compound?
A: 5.2%

Q: And the kinase still bound, per cent of control (HIPK2 (human))?
A: 100%

Q: What about the kinase still bound, per cent of control (MAPK3 (human)) of the same compound?
A: 100%
